Assay results: ChEMBL document CHEMBL4837226, “Discovery of pyrrole derivatives for the treatment of glioblastoma and chronic myeloid leukemia” (Eur J Med Chem, 2021)
Active and inactive are the calls of the source. No cut-off for these calls is given here.

Experiments:
U-87 MG [1] = assay: Antitumor activity against human U-87MG cells xenografted in BALB/c nu/nu mouse assessed as reduction in CD31 marker expression at 25 mg/kg, ip administered every 2 days for 35 days by DAPI staining based immunofluorescence analysis; format: functional, organism-based; details: U-87MG ATCC, time 35.0 day
KBM5 [2] = assay: Potentiation of ponatinib-induced mitochondrial membrane depolarization in human KBM5 cells expressing T315I mutant at 5 nM measured upto 48 hrs by JC-1 staining based flow cytometry analysis; format: functional, cell-based; details: time hrs <=48
U-87 MG [3] = assay: Antitumor activity against human U-87MG cells xenografted in BALB/c nu/nu mouse assessed as reduction in glioma tumors at 25 mg/kg, ip administered every 2 days for 35 days by hematoxylin and eosin staining based assay; format: functional, organism-based; details: U-87MG ATCC, time 35.0 day
[4] = target: T1, DNA topoisomerase 1 (Homo sapiens) (UniProt P11387); assay: Inhibition of human recombinant topoisomerase I assessed as DNA cleavage using supercoiled pHOT1 plasmid DNA as substrate at 100 uM measured after 1 hr by agarose gel electrophoresis analysis
T1 sequence (whole entry): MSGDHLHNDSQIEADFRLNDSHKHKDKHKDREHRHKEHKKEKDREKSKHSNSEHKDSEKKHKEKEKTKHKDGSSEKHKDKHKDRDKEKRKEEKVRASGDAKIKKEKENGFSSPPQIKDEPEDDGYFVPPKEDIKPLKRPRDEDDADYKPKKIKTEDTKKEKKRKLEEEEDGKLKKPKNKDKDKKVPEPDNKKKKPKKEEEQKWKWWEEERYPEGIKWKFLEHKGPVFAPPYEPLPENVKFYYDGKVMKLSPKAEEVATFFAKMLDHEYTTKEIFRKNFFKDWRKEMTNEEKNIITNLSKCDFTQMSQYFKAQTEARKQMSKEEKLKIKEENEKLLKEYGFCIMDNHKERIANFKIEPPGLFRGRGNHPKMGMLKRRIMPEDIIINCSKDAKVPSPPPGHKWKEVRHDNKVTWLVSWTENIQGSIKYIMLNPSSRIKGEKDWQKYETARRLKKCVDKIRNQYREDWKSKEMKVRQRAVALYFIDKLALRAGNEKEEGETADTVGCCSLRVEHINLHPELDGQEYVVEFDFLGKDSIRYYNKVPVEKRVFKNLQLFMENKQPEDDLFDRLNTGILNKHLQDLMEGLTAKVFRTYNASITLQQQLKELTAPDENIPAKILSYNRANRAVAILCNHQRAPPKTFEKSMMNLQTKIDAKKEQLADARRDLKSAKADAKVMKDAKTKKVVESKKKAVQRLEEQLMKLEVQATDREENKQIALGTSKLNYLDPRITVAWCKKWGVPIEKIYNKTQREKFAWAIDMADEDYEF

SW-620 = assay: Cytotoxicity against human SW-620 cells assessed as cell growth inhibition measured after 48 hrs by XTT dye based assay; format: functional; details: SW-620, 48 h
U-87 MG [5] = assay: Cytotoxicity against human U-87MG cells assessed as cell growth inhibition by measuring maximum efficacy measured after 48 hrs by MTS colorimetric assay relative to control; format: functional, U-87MG ATCC
MCF7 = assay: Cytotoxicity against human MCF7 cells assessed as cell growth inhibition measured after 96 hrs; format: functional, cell-based; details: MCF7, 96 h
KU812 cell line [6] = assay: Potentiation of ponatinib-induced apoptosis in human KU812 cells assessed as increase in apoptotic cells at 5 nM measured after 48 hrs by annexin V staining based flow cytometry analysis; format: functional, cell-based
[7] = Cytotoxicity against human U343MG cells assessed as cell growth inhibition by measuring maximum efficacy measured after 72 hrs by MTS colorimetric assay relative to control; format: functional; details: U-343MG
[8] = target: Bcr/Abl fusion protein (Homo sapiens) (UniProt P00519+P11274); assay: Inhibition of Bcr-Abl tyrosine phosphorylation in human KBM5 cells expressing T315I mutant at 1 to 10 nM in the presence of ponatinib measured after 24 hrs by western blot analysis; format: cell-based; details: dose 1-10 nM
Bcr/Abl fusion protein (Homo sapiens), sequence (P00519 whole entry, looked up, the tested form may be a part): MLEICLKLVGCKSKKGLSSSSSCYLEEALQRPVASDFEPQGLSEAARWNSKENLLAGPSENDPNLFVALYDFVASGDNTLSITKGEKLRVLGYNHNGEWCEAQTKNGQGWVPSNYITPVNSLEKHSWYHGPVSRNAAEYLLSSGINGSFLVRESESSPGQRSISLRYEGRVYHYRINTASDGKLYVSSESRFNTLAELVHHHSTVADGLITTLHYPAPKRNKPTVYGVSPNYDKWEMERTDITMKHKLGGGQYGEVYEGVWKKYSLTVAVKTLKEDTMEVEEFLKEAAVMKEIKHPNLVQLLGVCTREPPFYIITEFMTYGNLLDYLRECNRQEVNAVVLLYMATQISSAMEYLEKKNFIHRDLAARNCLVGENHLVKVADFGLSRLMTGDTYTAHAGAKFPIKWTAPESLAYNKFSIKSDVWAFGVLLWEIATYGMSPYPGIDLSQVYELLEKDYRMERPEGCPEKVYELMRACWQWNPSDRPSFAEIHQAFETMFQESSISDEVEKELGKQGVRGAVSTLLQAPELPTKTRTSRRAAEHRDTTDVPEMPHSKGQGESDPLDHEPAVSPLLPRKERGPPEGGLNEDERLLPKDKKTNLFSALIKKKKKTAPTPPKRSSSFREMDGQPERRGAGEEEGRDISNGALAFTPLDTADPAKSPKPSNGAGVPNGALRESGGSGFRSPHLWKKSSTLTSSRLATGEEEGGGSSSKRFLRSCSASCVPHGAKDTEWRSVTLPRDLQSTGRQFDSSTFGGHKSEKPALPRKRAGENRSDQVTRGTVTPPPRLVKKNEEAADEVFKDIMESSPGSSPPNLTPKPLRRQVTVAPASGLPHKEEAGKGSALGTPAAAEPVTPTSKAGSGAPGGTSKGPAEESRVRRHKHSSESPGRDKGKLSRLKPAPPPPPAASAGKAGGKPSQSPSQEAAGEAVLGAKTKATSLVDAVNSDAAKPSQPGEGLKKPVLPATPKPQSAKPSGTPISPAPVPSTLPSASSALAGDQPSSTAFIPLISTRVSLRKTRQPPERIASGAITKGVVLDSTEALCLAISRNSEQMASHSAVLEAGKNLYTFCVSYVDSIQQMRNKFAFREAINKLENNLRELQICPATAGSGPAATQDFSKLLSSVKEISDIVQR
Bcr/Abl fusion protein (Homo sapiens), sequence (P11274 whole entry, looked up, the tested form may be a part): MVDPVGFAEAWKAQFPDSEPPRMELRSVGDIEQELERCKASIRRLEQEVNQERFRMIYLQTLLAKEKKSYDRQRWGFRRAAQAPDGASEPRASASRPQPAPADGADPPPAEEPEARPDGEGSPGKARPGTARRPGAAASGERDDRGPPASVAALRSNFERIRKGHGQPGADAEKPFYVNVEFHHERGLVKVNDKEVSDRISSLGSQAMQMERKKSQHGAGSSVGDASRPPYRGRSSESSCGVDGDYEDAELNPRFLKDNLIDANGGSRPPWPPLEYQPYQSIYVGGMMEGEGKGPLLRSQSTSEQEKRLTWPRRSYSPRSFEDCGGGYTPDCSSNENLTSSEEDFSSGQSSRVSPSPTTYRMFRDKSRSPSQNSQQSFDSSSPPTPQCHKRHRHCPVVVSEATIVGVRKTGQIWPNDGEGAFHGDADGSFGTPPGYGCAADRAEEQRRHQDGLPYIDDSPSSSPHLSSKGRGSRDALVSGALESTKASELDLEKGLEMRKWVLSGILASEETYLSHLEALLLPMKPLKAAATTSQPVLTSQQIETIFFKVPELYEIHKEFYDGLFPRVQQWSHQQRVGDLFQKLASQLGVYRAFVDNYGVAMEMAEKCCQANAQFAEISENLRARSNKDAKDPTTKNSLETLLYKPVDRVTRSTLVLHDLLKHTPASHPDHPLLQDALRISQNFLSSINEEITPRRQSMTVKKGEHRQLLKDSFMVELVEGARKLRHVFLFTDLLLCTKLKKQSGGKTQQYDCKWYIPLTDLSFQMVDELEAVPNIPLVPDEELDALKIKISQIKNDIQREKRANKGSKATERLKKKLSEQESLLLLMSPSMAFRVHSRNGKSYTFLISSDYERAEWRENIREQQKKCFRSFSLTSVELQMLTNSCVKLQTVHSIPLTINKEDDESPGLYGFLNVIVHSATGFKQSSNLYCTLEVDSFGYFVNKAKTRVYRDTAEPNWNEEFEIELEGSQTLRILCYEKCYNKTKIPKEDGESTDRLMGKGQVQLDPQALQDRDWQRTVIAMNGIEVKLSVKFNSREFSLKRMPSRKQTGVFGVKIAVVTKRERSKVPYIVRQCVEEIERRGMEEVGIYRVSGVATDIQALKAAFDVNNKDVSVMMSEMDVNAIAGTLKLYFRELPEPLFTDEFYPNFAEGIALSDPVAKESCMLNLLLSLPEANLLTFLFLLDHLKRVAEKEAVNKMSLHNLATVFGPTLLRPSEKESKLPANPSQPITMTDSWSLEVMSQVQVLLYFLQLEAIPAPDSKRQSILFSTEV

U-87 MG [9] = assay: Antitumor activity against human U-87MG cells xenografted in BALB/c nu/nu mouse assessed as reduction in Ki67 expression at 25 mg/kg, ip administered every 2 days for 35 days by DAPI staining based immunofluorescence analysis; format: functional, organism-based; details: U-87MG ATCC, time 35.0 day
U-87 MG [10] = assay: Antitumor activity against human U-87MG cells xenografted in BALB/c nu/nu mouse assessed as reduction in tumor volume at 25 mg/kg, ip administered every 2 days for 35 days; format: functional, organism-based; details: U-87MG ATCC, time 35.0 day
[11] = target: T2, DNA topoisomerase II (Homo sapiens) (UniProt P11388+Q02880); assay: Inhibition of human topoisomerase II assessed as reduction in decantenation using kinetoplast DNA as a substrate at 10 to 50 uM measured after 1 hr by ethidium bromide staining based agarose gel electrophoresis analysis; format: protein assay; details: dose 10-50 µM
KBM5 [12] = assay: Potentiation of ponatinib-induced apoptosis human KBM5 cells expressing T315I mutant assessed as increase in apoptotic cells at 5 nM measured after 48 hrs by annexin V staining based flow cytometry analysis (reference value: 35 %); format: functional
KBM5 [13] = assay: Potentiation of ponatinib-induced mitochondrial membrane depolarization in human KBM5 cells expressing T315I mutant at 5 nM in the presence of ponatinib measured upto 48 hrs by JC-1 staining based flow cytometry analysis (Rvb= 32.7 %); format: functional; details: time hrs <=48
U-87 MG [14] = assay: Antitumor activity against human U-87MG cells xenografted in BALB/c nu/nu mouse assessed as increase in activated caspase-3 expression at 25 mg/kg, ip administered every 2 days for 35 days by DAPI staining based immunofluorescence analysis; format: functional, organism-based; details: U-87MG ATCC, time 35.0 day
U-87 MG [15] = assay: Cytotoxicity against human U-87MG cells assessed as cell growth inhibition measured after 48 hrs by MTS colorimetric assay; format: functional, cell-based, U-87MG ATCC
Tubulin = assay: Inhibition of tubulin polymerization (unknown origin) assessed as reduction in tubulin assembly preincubated for 15 mins followed by GTP addition by spectrophotometric method; format: protein-complex assay, Homo sapiens
Tubulin (Homo sapiens) = Tubulin (Homo sapiens) (UniProt P68371+Q9H4B7+P0DPH7+P68366+Q13509+Q71U36+P04350+Q3ZCM7+P07437+P68363+Q9BQE3+Q6PEY2+Q13885+Q9BVA1+Q9BUF5); assay: Inhibition of [3H]Colchicine binding to tubulin (unknown origin) at 5 uM measured after 10 mins by DEAE-Cellulose filter method relative to control; format: protein-complex assay
[16] = Cytotoxicity against human U-343MG cells assessed as cell growth inhibition measured after 72 hrs by MTS colorimetric assay; format: functional, cell-based
KU812 cell line [17] = assay: Cytotoxicity against Bcr-Abl expressing human KU812 cells assessed as cell growth inhibition measured after 48 hrs by MTT assay; format: functional, cell-based; details: KU812, 48 h
[18] = target: T2, DNA topoisomerase II (Homo sapiens); assay: Inhibition of human topoisomerase II assessed as reduction in decantenation using kinetoplast DNA as a substrate at 100 uM measured after 1 hr by ethidium bromide staining based agarose gel electrophoresis analysis relative to control; format: protein assay
KBM5 [19] = assay: Induction of apoptosis in human KBM5 cells expressing T315I mutant assessed as increase in cytochrome C expression at 1 to 10 uM measured after 24 hrs by western blot analysis; format: functional, cell-based; details: dose 1-10 µM
U-87 MG [20] = assay: Antitumor activity against human U-87MG cells xenografted in BALB/c nu/nu mouse assessed as reduction in GFAP expression at 25 mg/kg, ip administered every 2 days for 35 days by DAPI staining based immunofluorescence analysis; format: functional, organism-based; details: U-87MG ATCC, time 35.0 day

Which results are given for `COc1cc(C(=O)c2cn(-c3ccc(C)cc3)cc2-c2ccsc2)cc(OC)c1OC`?
Activity (U-87 MG [1]): Active; Activity (KBM5 [2]): Active; Activity (U-87 MG [3]): Active; inhibition [4]: Active; IC50 (SW-620): 111 nM; Emax (U-87 MG [5]): 55.6%; IC50 (MCF7): 4 nM; Activity (KU812 cell line [6]): Active; Emax [7]: 48.5%; inhibition [8]: Active; Activity (U-87 MG [9]): Active; Activity (U-87 MG [10]): Active; inhibition [11]: inactive; Activity (KBM5 [12]): 70%; Activity (KBM5 [13]): 56.7%; Activity (U-87 MG [14]): Active; IC50 (U-87 MG [15]): 19.4 nM; IC50 (Tubulin): 390 nM; inhibition (Tubulin (Homo sapiens)): 90%; IC50 [16]: 18.6 nM; IC50 (KU812 cell line [17]): 9.5 nM; inhibition [18]: 100%; Activity (KBM5 [19]): Active; Activity (U-87 MG [20]): Active
